Several values for one entry are separate records, joined by “and”; a condition that tells them apart may be missing. Equal values may be shown once.
Key:
[1] = test system: A.Xylosoxidans; experiment: MIC microbiological assay; format: cell-based; conditions: single drug
Source text: (§1) A microbiological assay was developed to examine the efficacy of the colistin sulphate and tobramycin when loaded and released from the polymer at the same time. organisms were selected which were sensitive to only one of the antibiotics.

[2] = test system: S.Aureus; experiment: MIC microbiological assay; format: cell-based; conditions: single drug
Source text: as §1

[3] = Microbiological testing in-vitro, each drug alone; format: cell-based; conditions: examined alone
Source text: as §1

[4] = In-vivo release of colistin sulphate and tobramycin from buccal inserts; conditions: four subjects
Source text: The release of the two drugs was examined in four healthy subjects. The insert was placed against the buccal mucosa in the upper gingival tissue. Eating and smoking was not permitted during the study, drinking of tea, coffee or soft drinks was allowed.

[5] = Lysozyme in-vitro release from dried slices (BCA assay); format: physicochemical; conditions: five dried slices in 30 ml demineralised water, after 24 hours
Method: To determine the release profile of lysozyme from dried slices, five slices (0.86 g) were placed in a bottle and 30 ml of demineralised water added. Samples were taken regularly and analysed for protein using the BCA assay. A total of 22.9 mg (88.4%) was released after 24 hours.

[6] = Oral dissolution model, chemical (HPLC) assay of tobramycin; format: physicochemical; conditions: for Chemical Dissolution (concentration in eluate): cells 1-3
Method: (§2) Six cells were sterilised by autoclaving and then connected to a Duran bottle of sterile water. The flow of water into the cell was controlled by a peristaltic pump (Watson Marlow, Falmouth, UK) to a rate of 0.5 ml/minute. Two different dosage forms (5.8 and 10.5 mg tobramycin) as 9.2 mm discs of thickness 1.7 mm and 130 mg weight were tested by placing directly under the inflow tube and media allowed to flow slowly across them. The dissolution cells were kept at an angle of about 10 degrees to the horizontal to allow flow away from the test units and towards the outflow tube where it was either run to waste or sampled for test. Samples of 2 ml were collected at various timepoints up to 3 hours and divided for chemical (HPLC) and microbiological assay. Tobramycin chemical analysis was carried out using a Dionex HPLC method. The microbiological assay was carried out by double diluting the eluted fractions with broth. These were then spiked with a known number of micro-organisms and incubated. The last tube without growth was then noted. By carrying this out in parallel against a series of prepared standards the inhibitory concentration could be derived.

[7] = test system: micro-organisms; experiment: Oral dissolution model, microbiological assay of eluted fractions; format: cell-based; conditions: cells 1-3
Method: as §2

[8] = Apomorphine plasma levels after buccal inserts; format: in vivo, human; conditions: one subject, insert containing 20 mg
Method: 1.1 mm thick inserts containing 5, 10 and 20 mg of apomorphine were tested for drug release in six subjects. The levels of drug observed in plasma was 0.2 to 0.8 ng/ml for five of the subjects and reached 5 ng/ml for one subject after administering an insert containing 20 mg of apomorphine.

[9] = Apomorphine in-vivo release, 0.6 mm inserts; design: species or system human; conditions: individual subjects 1-8
Method: Inserts were prepared of thickness 0.6 mm and the release profile in-vitro compared with those of the 1.1 mm thick inserts.
A study was carried out in eight subjects. These included two subjects from the previous study and six new subjects.

Colistin Sulphate
MIC [1]: 8 μ μgml^−1 | MIC [2]: >32 μ μgml^−1 | microbiological activity [3]: microbiologically active | Mean Amount of Drug Released (%) ([4]; insert thickness 0.4 mm, 1 Hour): 48.8% | Mean Amount of Drug Released (%) ([4]; insert thickness 0.4 mm, 3 Hours): 98.6% | Mean Amount of Drug Released (%) ([4]; insert thickness 0.6 mm, 1 Hour): 32.4% | Mean Amount of Drug Released (%) ([4]; insert thickness 0.6 mm, 3 Hours): 92.8% | Mean Amount of Drug Released (%) ([4]; insert thickness 0.8 mm, 1 Hour): 26.7% | Mean Amount of Drug Released (%) ([4]; insert thickness 0.8 mm, 3 Hours): 83.4% | Mean Amount of Drug Released (%) ([4]; insert thickness 1.1 mm, 3 Hours): 57.9%

Lysozyme
total released [5]: 22.9 mg | total released (%) [5]: 88.4%

NC[C@H]1O[C@H](O[C@H]2[C@H](O)[C@@H](O[C@H]3O[C@H](CO)[C@@H](O)[C@H](N)[C@H]3O)[C@H](N)C[C@@H]2N)[C@H](N)C[C@@H]1O [Tobramycin]
Chemical Dissolution (concentration in eluate) ([6]; 5 mg Dose, 0.25 hrs): 35.5 µg/mL and 26.7 µg/mL and 33.4 µg/mL | Chemical Dissolution (concentration in eluate) ([6]; 5 mg Dose, 1 hrs): 23.7 µg/mL and 17.7 µg/mL and 24.0 µg/mL | Chemical Dissolution (concentration in eluate) ([6]; 5 mg Dose, 2 hrs): 14.0 µg/mL and 15.8 µg/mL and 18.6 µg/mL | Chemical Dissolution (concentration in eluate) ([6]; 5 mg Dose, 3 hrs): 14.0 µg/mL and 12.0 µg/mL and 15.4 µg/mL | Chemical Dissolution (concentration in eluate) ([6]; 10 mg Dose, 0.25 hrs): 105.6 µg/mL and 85.3 µg/mL and 64.4 µg/mL | Chemical Dissolution (concentration in eluate) ([6]; 10 mg Dose, 1 hrs): 65.4 µg/mL and 44.6 µg/mL and 34.8 µg/mL | Chemical Dissolution (concentration in eluate) ([6]; 10 mg Dose, 2 hrs): 48.7 µg/mL and 36.9 µg/mL and 27.9 µg/mL | Chemical Dissolution (concentration in eluate) ([6]; 10 mg Dose, 3 hrs): 36.5 µg/mL and 32.0 µg/mL and 27.0 µg/mL | time for which controlled release is maintained ([6]; oral dissolution model, 0.5 ml/minute): 3 h | Microbiological Measure of Activity (derived concentration) ([7]; 5 mg Dose, 0.25 hrs): 32 mcg/ml and 36 mcg/ml | Microbiological Measure of Activity (derived concentration) ([7]; 5 mg Dose, 2 hrs): 16 mcg/ml and 18 mcg/ml | Microbiological Measure of Activity (derived concentration) ([7]; 5 mg Dose, 3 hrs): 16 mcg/ml and 18 mcg/ml | Microbiological Measure of Activity (derived concentration) ([7]; 10 mg Dose, 0.25 hrs): 64 mcg/ml | Microbiological Measure of Activity (derived concentration) ([7]; 10 mg Dose, 1 hrs): 64 mcg/ml and 32 mcg/ml | Microbiological Measure of Activity (derived concentration) ([7]; 10 mg Dose, 2 hrs): 32 mcg/ml and 16 mcg/ml | Microbiological Measure of Activity (derived concentration) ([7]; 10 mg Dose, 3 hrs): 32 mcg/ml and 16 mcg/ml | MIC [1]: >256 μ μgml^−1 | MIC [2]: 4 μ μgml^−1 | microbiological activity [3]: microbiologically active

CN1CCc2cccc3c2[C@H]1Cc1ccc(O)c(O)c1-3 [Apomorphine]
levels of drug observed in plasma [8]: 5 ng/mL | % RELEASE ([9]; 10 mg): 6.4% and 42.8% and 30.4% and 10.9% and 0.48% and 25.1% and 26.0% and 3.4% | % RELEASE ([9]; 18 mg): 2.64% and 15.2% and 26.3% and 21.5% and 4.1% and 7.5% and 49.2% and 19.4% | % RELEASE ([9]; 27 mg (am.)): 0.0% and 1.1% and 24.8% and 9.9% and 2.7% and 6.2% and 17.7% and 1.3% | % RELEASE ([9]; 27 mg (pm.)): 0.0% and 6.2% and 32.6% and 23.6% and 4.4% and 1.3% and 29.6% and 3.0%

Source: patent US6488953B2, “Oral transmucosal delivery” (Controlled Therapeutics (Scotland) Ltd., priority 1998, dated 2002)
